Key:
[1] = molecular target: T1, Epidermal growth factor receptor (Homo sapiens, UniProt P00533); assay: Inhibition of Tel-fused EGFR (unknown origin) expressed in mouse BAF3 cells assessed as growth inhibition after 72 hrs by CellTiter-Glo assay; type: cell-based
[2] = molecular target: T2, Tyrosine-protein kinase Blk (Homo sapiens, UniProt P51451); assay: Binding affinity to wild-type human BLK expressed in bacterial system assessed as control score at 1 uM by KINOMEScan assay
[3] = molecular target: Tyrosine-protein kinase BTK (Homo sapiens, UniProt Q06187); assay: Binding affinity to full-length wild-type human BTK expressed in mammalian system assessed as control score at 1 uM by KINOMEScan assay
[4] = molecular target: Receptor tyrosine-protein kinase erbB-2 (Homo sapiens, UniProt P04626); assay: Binding affinity to wild-type human ERBB2 expressed in mammalian system assessed as control score at 1 uM by KINOMEScan assay
[5] = molecular target: T3, Receptor tyrosine-protein kinase erbB-4 (Homo sapiens, UniProt Q15303); assay: Binding affinity to wild-type human ERBB4 expressed in bacterial system assessed as control score at 1 uM by KINOMEScan assay
T3 sequence (Q15303 whole entry): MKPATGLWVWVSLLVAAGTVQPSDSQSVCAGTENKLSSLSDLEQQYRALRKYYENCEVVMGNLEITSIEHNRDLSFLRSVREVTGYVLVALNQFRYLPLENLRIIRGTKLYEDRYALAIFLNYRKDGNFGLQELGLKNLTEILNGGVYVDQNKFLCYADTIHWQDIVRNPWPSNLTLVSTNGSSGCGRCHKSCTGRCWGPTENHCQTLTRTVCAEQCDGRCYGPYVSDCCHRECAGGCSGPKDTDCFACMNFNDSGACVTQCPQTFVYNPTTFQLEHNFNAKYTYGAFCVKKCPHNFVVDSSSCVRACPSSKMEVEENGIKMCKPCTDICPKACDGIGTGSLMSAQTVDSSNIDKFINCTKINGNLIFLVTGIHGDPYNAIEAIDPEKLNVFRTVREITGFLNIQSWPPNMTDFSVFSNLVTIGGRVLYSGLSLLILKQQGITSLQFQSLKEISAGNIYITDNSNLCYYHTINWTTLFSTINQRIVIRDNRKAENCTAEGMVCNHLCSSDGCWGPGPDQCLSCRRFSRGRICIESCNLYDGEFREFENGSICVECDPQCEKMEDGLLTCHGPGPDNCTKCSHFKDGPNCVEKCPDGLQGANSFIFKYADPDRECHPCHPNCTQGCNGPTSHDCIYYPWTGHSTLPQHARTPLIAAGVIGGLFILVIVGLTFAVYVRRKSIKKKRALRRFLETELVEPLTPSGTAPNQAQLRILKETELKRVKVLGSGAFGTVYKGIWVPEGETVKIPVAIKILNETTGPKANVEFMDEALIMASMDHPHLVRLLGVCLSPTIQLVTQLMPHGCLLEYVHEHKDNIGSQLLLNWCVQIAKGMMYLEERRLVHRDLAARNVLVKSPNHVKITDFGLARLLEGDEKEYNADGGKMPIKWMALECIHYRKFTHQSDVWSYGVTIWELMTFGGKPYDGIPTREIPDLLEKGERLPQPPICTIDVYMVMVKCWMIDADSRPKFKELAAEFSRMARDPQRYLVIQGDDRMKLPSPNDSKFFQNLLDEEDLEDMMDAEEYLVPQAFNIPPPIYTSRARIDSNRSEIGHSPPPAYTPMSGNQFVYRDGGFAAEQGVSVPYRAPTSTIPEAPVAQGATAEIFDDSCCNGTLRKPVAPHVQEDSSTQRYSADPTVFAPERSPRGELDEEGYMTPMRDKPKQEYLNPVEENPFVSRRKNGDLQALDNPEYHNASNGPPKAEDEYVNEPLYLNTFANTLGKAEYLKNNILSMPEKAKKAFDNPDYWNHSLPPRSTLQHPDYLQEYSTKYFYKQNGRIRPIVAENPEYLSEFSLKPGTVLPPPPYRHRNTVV

[6] = molecular target: T4, Dual specificity mitogen-activated protein kinase kinase 1 (Homo sapiens, UniProt Q02750); assay: Binding affinity to full-length human MEK1 expressed in mammalian system assessed as control score at 1 uM by KINOMEScan assay
T4 sequence (Q02750 whole entry): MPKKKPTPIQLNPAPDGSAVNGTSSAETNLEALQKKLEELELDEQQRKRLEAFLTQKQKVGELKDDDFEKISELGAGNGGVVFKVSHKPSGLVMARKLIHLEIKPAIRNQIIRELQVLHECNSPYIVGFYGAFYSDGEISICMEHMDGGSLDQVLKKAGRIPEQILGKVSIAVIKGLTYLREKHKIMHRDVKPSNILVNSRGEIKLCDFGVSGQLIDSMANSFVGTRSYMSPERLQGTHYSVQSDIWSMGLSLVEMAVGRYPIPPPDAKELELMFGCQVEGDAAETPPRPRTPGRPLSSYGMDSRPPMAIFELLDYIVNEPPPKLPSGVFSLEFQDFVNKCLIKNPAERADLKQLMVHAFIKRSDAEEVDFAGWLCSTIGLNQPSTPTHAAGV

[7] = molecular target: Dual specificity mitogen-activated protein kinase kinase 5 (Homo sapiens) (UniProt Q13163); assay: Binding affinity to wild-type human MEK5 expressed in mammalian system assessed as control score at 1 uM by KINOMEScan assay
Dual specificity mitogen-activated protein kinase kinase 5 (Homo sapiens), sequence (Q13163 whole entry, the tested form may be a part): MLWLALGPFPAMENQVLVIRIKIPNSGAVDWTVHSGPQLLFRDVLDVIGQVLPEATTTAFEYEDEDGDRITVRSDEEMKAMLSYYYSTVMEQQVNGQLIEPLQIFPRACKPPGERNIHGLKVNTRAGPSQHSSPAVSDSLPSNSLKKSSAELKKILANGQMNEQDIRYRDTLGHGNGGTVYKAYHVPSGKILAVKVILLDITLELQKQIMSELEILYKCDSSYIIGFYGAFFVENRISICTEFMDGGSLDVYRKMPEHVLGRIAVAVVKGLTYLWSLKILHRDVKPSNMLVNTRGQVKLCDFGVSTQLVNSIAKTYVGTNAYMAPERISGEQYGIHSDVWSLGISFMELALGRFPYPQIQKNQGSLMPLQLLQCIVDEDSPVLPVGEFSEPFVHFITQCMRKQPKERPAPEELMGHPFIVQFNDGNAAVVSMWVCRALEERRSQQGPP

[8] = molecular target: T1, Epidermal growth factor receptor; assay: Inhibition of recombinant human GST-tagged EGFR cytoplasmic domain expressed in baculovirus by Z'-LYTE assay
[9] = molecular target: T2, Tyrosine-protein kinase Blk; assay: Inhibition of full-length recombinant human His-tagged BLK expressed in baculovirus by Z'-LYTE assay
Target sequence in this assay (P51451 whole entry): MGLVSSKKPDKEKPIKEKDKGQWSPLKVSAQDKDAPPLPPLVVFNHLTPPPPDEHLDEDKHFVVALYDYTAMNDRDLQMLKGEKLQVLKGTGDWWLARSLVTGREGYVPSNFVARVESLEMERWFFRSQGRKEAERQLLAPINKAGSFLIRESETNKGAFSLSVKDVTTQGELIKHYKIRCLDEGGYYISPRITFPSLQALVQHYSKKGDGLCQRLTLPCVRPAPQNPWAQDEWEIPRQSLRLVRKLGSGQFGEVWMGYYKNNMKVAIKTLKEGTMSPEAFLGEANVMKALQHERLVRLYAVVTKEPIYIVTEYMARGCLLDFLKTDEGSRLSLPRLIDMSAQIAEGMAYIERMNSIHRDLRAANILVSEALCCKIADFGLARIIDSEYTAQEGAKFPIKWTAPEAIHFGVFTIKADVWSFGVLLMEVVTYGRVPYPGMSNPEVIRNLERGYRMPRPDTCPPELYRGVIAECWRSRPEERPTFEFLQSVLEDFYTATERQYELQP

[10] = molecular target: T3, Receptor tyrosine-protein kinase erbB-4; assay: Inhibition of recombinant human N-terminal GST-tagged ERBB4 cytoplasmic domain (708 to 993 residues) expressed in baculovirus by Z'-LYTE assay
[11] = molecular target: T4, Dual specificity mitogen-activated protein kinase kinase 1; assay: Inhibition of full-length recombinant human His-tagged MEK1 expressed in baculovirus by Z'-LYTE assay
[12] = molecular target: Epidermal growth factor receptor (Homo sapiens, UniProt P00533, L858R/T790M); assay: Inhibition of EGFR T790M/L858R mutant (unknown origin) autophosphorylation at Y1068 expressed in mouse BAF3 cells after 4 hrs by Western blot analysis; type: cell-based
[13] = molecular target: T1, Epidermal growth factor receptor; assay: Inhibition of wild-type EGFR in human A549 cells assessed as growth inhibition after 72 hrs by CellTiter-Glo assay; type: cell-based; conditions: a549, 72 h
[14] = molecular target: T1, Epidermal growth factor receptor; assay: Inhibition of wild-type EGFR in human NCI-H2122 cells assessed as growth inhibition after 72 hrs by CellTiter-Glo assay; type: cell-based
[15] = molecular target: T1, Epidermal growth factor receptor; assay: Inhibition of wild-type EGFR in human H1355 cells assessed as growth inhibition after 72 hrs by CellTiter-Glo assay; type: cell-based
[16] = molecular target: T5, Epidermal growth factor receptor (Homo sapiens, UniProt P00533, EX19DEL); assay: Inhibition of EGFR exon 19 deletion mutant in human PC9 cells assessed as reduction in ERK phosphorylation at Thr202/Tyr204 measured after 4 hrs by Western blot analysis; type: cell-based
T5 sequence (P00533 whole entry, looked up, stated change not applied): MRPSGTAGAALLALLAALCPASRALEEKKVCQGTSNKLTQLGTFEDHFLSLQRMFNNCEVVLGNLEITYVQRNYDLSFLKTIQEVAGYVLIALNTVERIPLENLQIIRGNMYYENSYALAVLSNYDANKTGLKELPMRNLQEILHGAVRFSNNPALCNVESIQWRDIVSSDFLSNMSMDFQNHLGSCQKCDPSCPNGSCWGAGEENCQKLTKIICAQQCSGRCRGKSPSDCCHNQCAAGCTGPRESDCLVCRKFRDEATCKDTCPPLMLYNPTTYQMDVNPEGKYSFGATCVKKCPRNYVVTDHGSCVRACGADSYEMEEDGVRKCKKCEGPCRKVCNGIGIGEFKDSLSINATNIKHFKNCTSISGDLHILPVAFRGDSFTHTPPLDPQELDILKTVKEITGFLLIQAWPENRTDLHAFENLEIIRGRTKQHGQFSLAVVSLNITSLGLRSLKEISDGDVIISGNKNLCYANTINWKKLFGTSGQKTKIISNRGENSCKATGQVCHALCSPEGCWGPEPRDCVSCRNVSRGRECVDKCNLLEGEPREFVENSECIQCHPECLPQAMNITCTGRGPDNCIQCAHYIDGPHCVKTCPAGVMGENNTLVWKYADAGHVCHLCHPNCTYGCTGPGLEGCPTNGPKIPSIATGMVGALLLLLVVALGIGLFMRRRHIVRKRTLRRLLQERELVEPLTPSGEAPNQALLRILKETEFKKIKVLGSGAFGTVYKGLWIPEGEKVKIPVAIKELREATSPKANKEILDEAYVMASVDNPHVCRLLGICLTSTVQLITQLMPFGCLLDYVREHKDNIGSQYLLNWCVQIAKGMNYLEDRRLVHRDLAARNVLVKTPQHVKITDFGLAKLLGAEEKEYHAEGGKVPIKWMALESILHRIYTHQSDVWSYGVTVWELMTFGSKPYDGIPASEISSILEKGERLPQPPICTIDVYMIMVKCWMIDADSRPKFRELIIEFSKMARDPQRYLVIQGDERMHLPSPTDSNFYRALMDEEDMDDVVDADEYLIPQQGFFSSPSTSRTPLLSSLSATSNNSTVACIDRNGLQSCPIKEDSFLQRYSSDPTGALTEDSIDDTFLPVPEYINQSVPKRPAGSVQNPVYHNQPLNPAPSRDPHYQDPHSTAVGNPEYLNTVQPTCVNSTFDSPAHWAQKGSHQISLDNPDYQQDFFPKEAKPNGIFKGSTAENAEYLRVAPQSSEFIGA

[17] = molecular target: T5, Epidermal growth factor receptor; assay: Inhibition of EGFR exon 19 deletion mutant in human HCC827 cells assessed as reduction in ERK phosphorylation at Thr202/Tyr204 measured after 4 hrs by Western blot analysis; type: cell-based
[18] = molecular target: T1, Epidermal growth factor receptor; assay: Inhibition of wild-type EGFR in human A549 cells assessed as reduction in Akt phosphorylation at 308 site at 0.01 to 3 uM by Western blot analysis; type: cell-based; conditions: a549, 3 µM
[19] = molecular target: T1, Epidermal growth factor receptor; assay: Inhibition of wild-type EGFR in human A549 cells assessed as reduction in eIF4E phosphorylation at Ser209 site at 0.01 to 3 uM by Western blot analysis; type: cell-based; conditions: a549, 3 µM
[20] = molecular target: T1, Epidermal growth factor receptor; assay: Inhibition of wild-type EGFR in human A549 cells assessed as reduction in 4EBP1 phosphorylation at Thr37/46 site at 0.01 to 3 uM by Western blot analysis; type: cell-based; conditions: a549, 3 µM
[21] = molecular target: T1, Epidermal growth factor receptor; assay: Inhibition of wild-type EGFR in human A549 cells assessed as reduction in P70S6K phosphorylation at Thr389 site at 0.01 to 3 uM by Western blot analysis; type: cell-based; conditions: a549, 3 µM
[22] = molecular target: T1, Epidermal growth factor receptor; assay: Inhibition of wild-type EGFR in human A549 cells assessed as reduction in ERK phosphorylation at Thr202/Tyr204 site at 0.01 to 3 uM by Western blot analysis; type: cell-based; conditions: a549, 3 µM
[23] = molecular target: T1, Epidermal growth factor receptor; assay: Inhibition of wild-type EGFR in human NCI-H2122 cells assessed as reduction in Akt phosphorylation at 308 site at 0.01 to 3 uM by Western blot analysis; type: cell-based
[24] = molecular target: T1, Epidermal growth factor receptor; assay: Inhibition of wild-type EGFR in human NCI-H2122 cells assessed as reduction in Akt phosphorylation at 473 site at 0.01 to 3 uM by Western blot analysis; type: cell-based
[25] = molecular target: T1, Epidermal growth factor receptor; assay: Inhibition of wild-type EGFR in human NCI-H2122 cells assessed as reduction in 4EBP1 phosphorylation at Thr37/46 site at 0.01 to 3 uM by Western blot analysis; type: cell-based
[26] = molecular target: T1, Epidermal growth factor receptor; assay: Inhibition of wild-type EGFR in human NCI-H2122 cells assessed as reduction in P70S6K phosphorylation at Thr389 site at 0.01 to 3 uM by Western blot analysis; type: cell-based
[27] = molecular target: T1, Epidermal growth factor receptor; assay: Inhibition of wild-type EGFR in human NCI-H2122 cells assessed as reduction in ERK phosphorylation at Thr202/Tyr204 site at 0.01 to 3 uM by Western blot analysis; type: cell-based
Rattus norvegicus [28] = assay: AUC (0 to infinity) in Sprague-Dawley rat plasma at 1 mg/kg, iv after 8 hrs; type: ADME, organism-based; set-up: dose 1 mg/kg, route intravenous, time infinity; conditions: in vivo
[29] = Tmax in Sprague-Dawley rat plasma at 1 mg/kg, iv after 8 hrs; type: ADME, organism-based
[30] = Half life in Sprague-Dawley rat plasma at 1 mg/kg, iv after 8 hrs; type: ADME, organism-based
[31] = MRT (0 to infinity) in Sprague-Dawley rat plasma at 1 mg/kg, iv after 8 hrs; type: ADME, organism-based
Rattus norvegicus [32] = assay: AUC (0 to t) in Sprague-Dawley rat plasma at 10 mg/kg, po after 24 hrs; type: ADME, organism-based; set-up: dose 10 mg/kg, time < 24 hr, route oral; conditions: in vivo
Rattus norvegicus [33] = assay: AUC (0 to infinity) in Sprague-Dawley rat plasma at 10 mg/kg, po after 24 hrs; type: ADME, organism-based; set-up: dose 10 mg/kg, time infinity, route oral; conditions: in vivo
[34] = Tmax in Sprague-Dawley rat plasma at 10 mg/kg, po after 24 hrs; type: ADME, organism-based
[35] = Half life in Sprague-Dawley rat plasma at 10 mg/kg, po after 24 hrs; type: ADME, organism-based
[36] = Apparent plasma clearance in Sprague-Dawley rat after 24 hrs at 10 mg/kg, po; type: ADME, organism-based
[37] = MRT (0 to infinity) in Sprague-Dawley rat plasma at 10 mg/kg, po after 24 hrs; type: ADME, organism-based
[38] = Oral bioavailability in Sprague-Dawley rat at 10 mg/kg after 24 hrs; type: ADME, organism-based; conditions: in vivo
[39] = molecular target: T1, Epidermal growth factor receptor; assay: Inhibition of wild type EGFR autophosphorylation at Y1068 in human A549 cells at 0.01 to 3 uM after 4 hrs by Western blot analysis; type: cell-based; conditions: a549, 4 h

T1 sequence (P00533 whole entry, the tested form may be a part): as the sequence (P00533 whole entry, looked up, stated change not applied) above

## C=CC(=O)N1CCC[C@@H](n2nc(-c3ccc(OCc4ccccn4)c(Cl)c3)c3c(N)ncnc32)C1
[1]
  GI50: 2 µM
[2]
  Activity: 0.7%
[3]
  Activity: 0.05%
[4]
  Activity: 0%
[5]
  Activity: 0%
[6]
  Activity: 0.4%
[7]
  Activity: 0.1%
[8]
  IC50: 0.0083 µM
[9]
  IC50: 0.0081 µM
[10]
  IC50: 0.0032 µM
[11]
  IC50: 0.161 µM
[12]
  EC50: 0.007 µM
[13]
  GI50: > 10 µM
[14]
  GI50: > 10 µM
[15]
  GI50: > 10 µM
[16]
  EC50: < 0.01 µM
[17]
  EC50: < 0.01 µM
[18]
  inhibition (INH): Not Active
[19]
  inhibition (INH): Not Active
[20]
  inhibition (INH): Not Active
[21]
  inhibition (INH): Not Active
[22]
  inhibition (INH): Not Active
[23]
  inhibition (INH): Not Active
[24]
  inhibition (INH): Not Active
[25]
  inhibition (INH): Not Active
[26]
  inhibition (INH): Not Active
[27]
  inhibition (INH): Not Active
Rattus norvegicus [28]
  AUC: 0.405 µg·h/mL
[29]
  Tmax: 1.02 min
[30]
  half-life: 18 min
[31]
  MRT inf: 12.6 min
Rattus norvegicus [32]
  AUCt: 130 to 415 ng/mL/h
Rattus norvegicus [33]
  AUC: 0.441 µg·h/mL
[34]
  Tmax: 34.8 min
[35]
  half-life: 117 min
[36]
  CL/F: 24.4 L/h/kg
[37]
  MRT inf: 153 min
[38]
  bioavailability: 10.3%
[39]
  inhibition (INH): Active

Reference: ChEMBL document CHEMBL4049404, “Discovery of (R)-1-(3-(4-Amino-3-(3-chloro-4-(pyridin-2-ylmethoxy)phenyl)-1H-pyrazolo[3,4-d]pyrimidin-1-yl)piperidin-1-yl)prop-2-en-1-one (CHMFL-EGFR-202) as a Novel Irreversible EGFR Mutant Kinase Inhibitor with a Distinct Binding Mode” (J Med Chem, 2017)
